From ChEMBL document CHEMBL3217463, “Design, synthesis and biological evaluation of -lactam hydroxamate based TACE inhibitors” (Medchemcomm, 2011)

Tests used:
[1] = system: Blood; test: Antiinflammatory activity in human whole blood assessed as inhibition of LPS-induced TNFalpha secretion by ELISA; assay type: functional, tissue-based
[2] = target: T1, Matrilysin (Homo sapiens, UniProt P09237); test: Inhibition of MMP7 (unknown origin) by fluorescence-based FRET assay
T1 sequence (P09237 whole entry): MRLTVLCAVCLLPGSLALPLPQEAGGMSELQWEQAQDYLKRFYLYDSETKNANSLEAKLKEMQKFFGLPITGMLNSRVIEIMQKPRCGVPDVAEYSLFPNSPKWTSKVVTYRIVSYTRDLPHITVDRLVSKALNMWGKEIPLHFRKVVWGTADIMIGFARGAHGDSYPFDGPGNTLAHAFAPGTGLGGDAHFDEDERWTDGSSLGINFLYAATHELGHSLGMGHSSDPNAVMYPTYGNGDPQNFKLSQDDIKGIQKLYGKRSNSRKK

[3] = Tmax in Wistar rat at 5 mg/kg, po; assay type: ADME, organism-based; design: dose 5 mg/kg, route oral; settings: in vivo
[4] = target: Collagenase 3 (Homo sapiens, UniProt P45452); test: Inhibition of MMP13 (unknown origin) by fluorescence-based FRET assay
[5] = system: Rattus norvegicus; test: Toxicity in Wistar rat assessed as WBC count at 100 mg/kg, po bid for 28 days (reference value: 8.20 +/- 0.33 10^3/ul); assay type: organism-based; design: dose 100 mg/kg, route oral; settings: in vivo, 672 h
[6] = system: Mus musculus; test: Antiinflammatory activity in po dosed Swiss Albino mouse assessed as inhibition of LPS-induced TNFalpha secretion in blood treated 0.5 hrs before LPS and measured after 1 hr of LPS stimulus by ELISA; assay type: functional
[7] = system: Rattus norvegicus; test: Toxicity in Wistar rat assessed as total bilirubin at 100 mg/kg, po bid for 28 days (reference value: 0.14 +/- 0.01 mg/dL); assay type: organism-based; design: dose 100 mg/kg, route oral; settings: in vivo, 672 h
[8] = system: Rattus norvegicus; test: Toxicity in Wistar rat assessed as food consumption at 100 mg/kg, po bid for 28 days; assay type: organism-based; design: dose 100 mg/kg, route oral; settings: in vivo, 672 h
[9] = AUC in Wistar rat at 5 mg/kg, po; assay type: ADME, organism-based; design: dose 5 mg/kg, route oral; settings: plasma
[10] = target: T2, Interstitial collagenase (Homo sapiens, UniProt P03956); test: Inhibition of MMP1 (unknown origin) by fluorescence-based FRET assay
T2 sequence (P03956 whole entry): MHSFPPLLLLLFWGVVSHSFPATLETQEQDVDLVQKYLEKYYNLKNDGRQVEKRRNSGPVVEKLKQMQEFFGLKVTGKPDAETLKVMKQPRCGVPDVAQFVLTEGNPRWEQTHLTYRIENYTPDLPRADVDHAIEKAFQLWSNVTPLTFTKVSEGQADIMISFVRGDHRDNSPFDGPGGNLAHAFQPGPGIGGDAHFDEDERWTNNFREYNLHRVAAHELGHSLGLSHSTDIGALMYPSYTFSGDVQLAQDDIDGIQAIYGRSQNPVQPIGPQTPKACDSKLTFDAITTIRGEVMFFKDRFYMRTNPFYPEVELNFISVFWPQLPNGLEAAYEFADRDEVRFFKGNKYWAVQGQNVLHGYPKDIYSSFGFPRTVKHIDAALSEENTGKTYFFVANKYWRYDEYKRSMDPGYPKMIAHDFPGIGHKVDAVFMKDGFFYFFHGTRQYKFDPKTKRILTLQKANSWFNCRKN

[11] = target: T3, Disintegrin and metalloproteinase domain-containing protein 17 (Homo sapiens, UniProt P78536); test: Ratio of IC50 for human catalytic domain of TACE to IC50 for ADAM10 (unknown origin)
T3 sequence (P78536 whole entry, the tested form may be a part): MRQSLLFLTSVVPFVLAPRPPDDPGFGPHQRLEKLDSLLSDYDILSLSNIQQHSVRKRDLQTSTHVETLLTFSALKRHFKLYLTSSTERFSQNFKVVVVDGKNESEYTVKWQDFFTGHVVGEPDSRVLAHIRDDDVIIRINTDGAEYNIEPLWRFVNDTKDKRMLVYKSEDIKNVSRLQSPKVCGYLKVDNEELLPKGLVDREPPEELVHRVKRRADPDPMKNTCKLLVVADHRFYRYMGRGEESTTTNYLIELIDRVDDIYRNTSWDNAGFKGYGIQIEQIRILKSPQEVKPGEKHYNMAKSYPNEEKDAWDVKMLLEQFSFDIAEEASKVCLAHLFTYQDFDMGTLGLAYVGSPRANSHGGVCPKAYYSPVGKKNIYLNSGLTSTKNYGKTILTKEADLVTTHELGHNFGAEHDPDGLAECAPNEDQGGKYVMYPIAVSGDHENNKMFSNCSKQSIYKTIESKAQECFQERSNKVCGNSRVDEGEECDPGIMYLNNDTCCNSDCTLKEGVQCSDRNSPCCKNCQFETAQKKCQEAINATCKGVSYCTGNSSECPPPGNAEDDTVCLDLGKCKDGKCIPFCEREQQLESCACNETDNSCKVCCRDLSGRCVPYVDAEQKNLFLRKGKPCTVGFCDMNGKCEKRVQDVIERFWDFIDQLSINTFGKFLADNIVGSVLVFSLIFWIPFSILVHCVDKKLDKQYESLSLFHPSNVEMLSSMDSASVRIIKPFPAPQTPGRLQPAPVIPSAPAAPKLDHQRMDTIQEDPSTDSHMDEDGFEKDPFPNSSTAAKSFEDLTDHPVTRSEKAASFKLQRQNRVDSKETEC

[12] = Elimination rate constant in Wistar rat at 5 mg/kg, iv; assay type: ADME, organism-based; design: dose 5 mg/kg, route intravenous; settings: in vivo
[13] = system: Rattus norvegicus; test: Toxicity in Wistar rat assessed as alanine aminotransferase at 100 mg/kg, po bid for 28 days (reference value: 20.78 +/- 1.31 U/L); assay type: organism-based; design: dose 100 mg/kg, route oral; settings: in vivo, 672 h
[14] = target: Stromelysin-1 (Homo sapiens, UniProt P08254); test: Inhibition of MMP3 (unknown origin) by fluorescence-based FRET assay
Sequence of Stromelysin-1 (P08254 whole entry): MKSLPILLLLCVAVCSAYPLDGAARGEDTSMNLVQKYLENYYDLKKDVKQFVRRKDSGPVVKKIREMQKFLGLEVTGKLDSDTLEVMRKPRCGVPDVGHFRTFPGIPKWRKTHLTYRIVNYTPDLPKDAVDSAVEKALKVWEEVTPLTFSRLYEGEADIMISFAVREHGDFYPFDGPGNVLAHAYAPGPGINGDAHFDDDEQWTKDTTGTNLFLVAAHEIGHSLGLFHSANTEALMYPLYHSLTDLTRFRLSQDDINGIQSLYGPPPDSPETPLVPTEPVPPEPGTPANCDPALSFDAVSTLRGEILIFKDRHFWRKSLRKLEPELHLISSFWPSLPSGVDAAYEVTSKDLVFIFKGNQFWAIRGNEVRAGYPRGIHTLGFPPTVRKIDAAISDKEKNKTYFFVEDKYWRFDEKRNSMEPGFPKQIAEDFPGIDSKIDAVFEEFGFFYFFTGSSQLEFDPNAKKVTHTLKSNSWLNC

[15] = target: Neutrophil collagenase (Homo sapiens, UniProt P22894); test: Inhibition of MMP8 (unknown origin) by fluorescence-based FRET assay
Sequence of Neutrophil collagenase (P22894 whole entry): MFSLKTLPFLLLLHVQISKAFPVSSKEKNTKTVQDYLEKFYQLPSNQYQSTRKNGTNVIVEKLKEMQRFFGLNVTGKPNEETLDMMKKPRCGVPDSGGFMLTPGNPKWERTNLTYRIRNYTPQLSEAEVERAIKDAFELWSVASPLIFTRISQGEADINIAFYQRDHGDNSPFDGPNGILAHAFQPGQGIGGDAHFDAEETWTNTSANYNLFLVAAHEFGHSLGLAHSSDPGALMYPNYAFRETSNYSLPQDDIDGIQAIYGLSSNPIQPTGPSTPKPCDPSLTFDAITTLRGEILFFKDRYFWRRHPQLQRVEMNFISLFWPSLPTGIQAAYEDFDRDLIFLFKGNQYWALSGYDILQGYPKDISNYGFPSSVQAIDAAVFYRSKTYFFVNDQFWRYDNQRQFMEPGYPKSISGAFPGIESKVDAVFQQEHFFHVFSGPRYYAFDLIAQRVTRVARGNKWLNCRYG

[16] = system: Rattus norvegicus; test: Toxicity in Wistar rat assessed as adverse changes at 100 mg/kg, po bid for 28 days; assay type: organism-based; design: dose 100 mg/kg, route oral; settings: in vivo, 672 h
[17] = system: Rattus norvegicus; test: Toxicity in Wistar rat assessed as relative brain weight at 100 mg/kg, po bid for 28 days (reference value: 0.727+/- 0.024 %); assay type: organism-based; design: dose 100 mg/kg, route oral; settings: in vivo, 672 h
[18] = Half life in Wistar rat at 5 mg/kg, iv; assay type: ADME, organism-based; design: dose 5 mg/kg, route intravenous; settings: in vivo
[19] = system: Rattus norvegicus; test: Toxicity in Wistar rat assessed as relative spleen weight at 100 mg/kg, po bid for 28 days (reference value: 0.201+/- 0.007 %); assay type: organism-based; design: dose 100 mg/kg, route oral; settings: in vivo, 672 h
[20] = target: Matrix metalloproteinase-14 (Homo sapiens, UniProt P50281); test: Inhibition of MMP14 (unknown origin) by fluorescence-based FRET assay
[21] = system: Rattus norvegicus; test: Toxicity in Wistar rat assessed as relative heart weight at 100 mg/kg, po bid for 28 days (reference value: 0.345 +/- 0.007 %); assay type: organism-based; design: dose 100 mg/kg, route oral; settings: in vivo, 672 h
[22] = system: Rattus norvegicus; test: Toxicity in Wistar rat assessed as RBC count at 100 mg/kg, po bid for 28 days (reference value: 7.38 +/- 0.11 10^6/ul); assay type: organism-based; design: dose 100 mg/kg, route oral; settings: in vivo, 672 h
[23] = Oral bioavailability in Wistar rat at 5 mg/kg; assay type: ADME, organism-based; settings: in vivo
[24] = system: Rattus norvegicus; test: Toxicity in Wistar rat assessed as body weight at 100 mg/kg, po bid for 28 days; assay type: organism-based; design: dose 100 mg/kg, route oral; settings: in vivo, 672 h
[25] = target: T3, Disintegrin and metalloproteinase domain-containing protein 17; test: Inhibition of human catalytic domain of TACE assessed as inhibit the cleavage of the substrate by fluorescence-based FRET assay
[26] = target: Matrix metalloproteinase-9 (Homo sapiens, UniProt P14780); test: Inhibition of MMP9 (unknown origin) by fluorescence-based FRET assay
Sequence of Matrix metalloproteinase-9 (P14780 whole entry): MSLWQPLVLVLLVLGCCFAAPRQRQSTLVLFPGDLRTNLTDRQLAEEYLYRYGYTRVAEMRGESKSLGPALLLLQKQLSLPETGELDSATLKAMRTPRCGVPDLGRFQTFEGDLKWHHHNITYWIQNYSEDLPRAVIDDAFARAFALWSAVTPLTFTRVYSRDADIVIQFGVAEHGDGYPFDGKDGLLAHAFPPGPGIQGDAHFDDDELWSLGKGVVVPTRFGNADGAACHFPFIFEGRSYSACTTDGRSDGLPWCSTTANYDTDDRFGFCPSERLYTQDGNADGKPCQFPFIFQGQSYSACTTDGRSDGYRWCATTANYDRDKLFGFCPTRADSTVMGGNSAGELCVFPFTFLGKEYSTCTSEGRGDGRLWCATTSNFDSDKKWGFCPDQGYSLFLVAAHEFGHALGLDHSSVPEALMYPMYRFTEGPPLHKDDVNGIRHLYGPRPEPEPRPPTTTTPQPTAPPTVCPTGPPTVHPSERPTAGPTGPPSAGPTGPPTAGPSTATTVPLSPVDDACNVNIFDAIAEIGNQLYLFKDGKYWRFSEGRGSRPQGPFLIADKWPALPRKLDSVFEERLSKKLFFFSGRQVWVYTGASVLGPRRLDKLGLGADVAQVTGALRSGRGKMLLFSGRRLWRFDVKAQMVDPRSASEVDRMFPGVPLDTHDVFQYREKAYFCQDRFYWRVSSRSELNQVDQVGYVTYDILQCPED

[27] = AUC in Wistar rat at 5 mg/kg, iv; assay type: ADME, organism-based; design: dose 5 mg/kg, route intravenous; settings: plasma
[28] = system: Rattus norvegicus; test: Toxicity in Wistar rat assessed as survival at 100 mg/kg, po bid for 28 days; assay type: organism-based; design: dose 100 mg/kg, route oral; settings: in vivo, 672 h
[29] = Half life in Wistar rat at 5 mg/kg, po; assay type: ADME, organism-based; design: dose 5 mg/kg, route oral; settings: Wistar, in vivo
[30] = system: Rattus norvegicus; test: Toxicity in Wistar rat assessed as relative kidney weight at 100 mg/kg, po bid for 28 days (reference value: 0.821 +/- 0.03 %); assay type: organism-based; design: dose 100 mg/kg, route oral; settings: in vivo, 672 h
[31] = target: T4, Disintegrin and metalloproteinase domain-containing protein 10 (Homo sapiens, UniProt O14672); test: Inhibition of ADAM10 (unknown origin) using fluorescent substrate by fluorescence-based FRET assay
T4 sequence (O14672 whole entry): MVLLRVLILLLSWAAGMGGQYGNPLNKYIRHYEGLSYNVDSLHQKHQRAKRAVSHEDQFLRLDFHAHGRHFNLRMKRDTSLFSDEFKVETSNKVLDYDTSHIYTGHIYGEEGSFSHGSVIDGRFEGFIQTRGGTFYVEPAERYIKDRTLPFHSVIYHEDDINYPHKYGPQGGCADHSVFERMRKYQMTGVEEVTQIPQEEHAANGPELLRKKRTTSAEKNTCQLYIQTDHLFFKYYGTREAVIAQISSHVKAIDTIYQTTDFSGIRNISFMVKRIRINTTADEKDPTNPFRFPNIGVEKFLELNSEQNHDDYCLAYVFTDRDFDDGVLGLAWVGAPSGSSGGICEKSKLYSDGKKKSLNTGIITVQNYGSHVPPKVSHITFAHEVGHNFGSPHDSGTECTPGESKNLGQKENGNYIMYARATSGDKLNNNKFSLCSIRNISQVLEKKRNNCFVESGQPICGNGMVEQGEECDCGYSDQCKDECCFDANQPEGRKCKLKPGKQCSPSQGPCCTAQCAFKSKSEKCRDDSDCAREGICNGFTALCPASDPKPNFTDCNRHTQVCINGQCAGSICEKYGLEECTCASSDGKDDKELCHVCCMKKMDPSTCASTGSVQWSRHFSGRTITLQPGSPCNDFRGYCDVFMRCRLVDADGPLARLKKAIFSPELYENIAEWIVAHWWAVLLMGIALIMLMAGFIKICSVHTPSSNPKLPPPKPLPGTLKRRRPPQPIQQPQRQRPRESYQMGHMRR

[32] = Elimination rate constant in Wistar rat at 5 mg/kg, po; assay type: ADME, organism-based; design: dose 5 mg/kg, route oral; settings: Wistar, in vivo
[33] = system: Rattus norvegicus; test: Toxicity in Wistar rat assessed as aspartate aminotransferase at 100 mg/kg, po bid for 28 days (reference value: 147.16 +/- 11.75 U/L); assay type: organism-based; design: dose 100 mg/kg, route oral; settings: in vivo, 672 h
[34] = system: Rattus norvegicus; test: Toxicity in Wistar rat assessed as alkaline phosphatase at 100 mg/kg, po bid for 28 days (reference value: 134.66 +/- 5.3 U/L); assay type: organism-based; design: dose 100 mg/kg, route oral; settings: in vivo, 672 h
[35] = system: Rattus norvegicus; test: Toxicity in Wistar rat assessed as relative liver weight at 100 mg/kg, po bid for 28 days (reference value: 3.659 +/- 0.1 %); assay type: organism-based; design: dose 100 mg/kg, route oral; settings: in vivo, 672 h
[36] = target: 72 kDa type IV collagenase (Homo sapiens, UniProt P08253); test: Inhibition of MMP2 (unknown origin) by fluorescence-based FRET assay
Sequence of 72 kDa type IV collagenase (P08253 whole entry): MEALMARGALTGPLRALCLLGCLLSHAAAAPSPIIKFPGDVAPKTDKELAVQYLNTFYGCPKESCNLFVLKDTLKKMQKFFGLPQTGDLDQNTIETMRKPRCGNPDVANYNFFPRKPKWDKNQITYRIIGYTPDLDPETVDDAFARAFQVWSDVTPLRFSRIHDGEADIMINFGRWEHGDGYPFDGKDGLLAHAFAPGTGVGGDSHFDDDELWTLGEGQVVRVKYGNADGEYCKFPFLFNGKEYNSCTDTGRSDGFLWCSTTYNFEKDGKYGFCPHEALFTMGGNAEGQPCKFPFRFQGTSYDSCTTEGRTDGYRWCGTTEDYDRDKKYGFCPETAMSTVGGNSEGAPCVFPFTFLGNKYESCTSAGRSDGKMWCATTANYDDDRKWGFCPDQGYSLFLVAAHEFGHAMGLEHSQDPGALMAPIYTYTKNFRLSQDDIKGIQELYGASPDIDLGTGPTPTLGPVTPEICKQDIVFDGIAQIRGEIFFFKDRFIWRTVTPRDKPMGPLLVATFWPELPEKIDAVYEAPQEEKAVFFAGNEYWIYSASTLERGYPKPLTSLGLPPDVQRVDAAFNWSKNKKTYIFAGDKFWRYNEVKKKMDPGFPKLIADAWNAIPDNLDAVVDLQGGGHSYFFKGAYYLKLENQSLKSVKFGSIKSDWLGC

CC(C)C[C@H](C(=O)NO)N1CC[C@@](N)(c2ccc(OCc3cc(C4CC4)nc4ccccc34)cc2)C1=O
IC50 [1]: 170 nM

COCc1cc(COc2ccc([C@]3(N)CCN([C@H](C)C(=O)NO)C3=O)cc2)c2ccccc2n1
IC50 [1]: 98 nM

COCc1cc(COc2ccc([C@]3(N)CCN([C@H](CC(C)C)C(=O)O)C3=O)cc2)c2ccccc2n1
IC50 [1]: 3230 nM

CC(C)C[C@H](C(=O)NO)N1CC[C@@](N)(c2ccc(OCc3cc(CCOC(C)C)nc4ccccc34)cc2)C1=O
IC50 [1]: 130 nM

Cc1cccc(-c2cc(COc3ccc([C@]4(N)CCN([C@H](CC(C)C)C(=O)NO)C4=O)cc3)c3ccccc3n2)c1
IC50 [1]: 3880 nM

COCc1cc(COc2ccc([C@]3(NC(=O)OC(C)(C)C)CCN([C@H](CC(C)C)C(=O)NO)C3=O)cc2)c2ccccc2n1
IC50 [1]: 3050 nM

COCc1cc(COc2ccc([C@]3(N)CCN([C@H](CC(C)C)C(=O)OC)C3=O)cc2)c2ccccc2n1
IC50 [1]: 3000 nM

Cc1cc(COc2ccc([C@]3(N)CCN([C@H](CC(C)C)C(=O)NO)C3=O)cc2)c2ccccc2n1
IC50 [2]: 466 nM
Tmax [3]: 1.21 h
IC50 [4]: 461 nM
Activity [5]: 8.99 ×10³ /uL
ED50 [6]: 6.9 mg/kg
Activity [7]: 0.79 mg/dL
Activity [8]: Non-toxic
AUC [9]: 5970 ng·h/mL
IC50 [10]: 429 nM
Ratio IC50 [11]: 40
k el [12]: 8.33e-05 s⁻¹
Activity [13]: 39.22 U/L
IC50 [14]: 285 nM
IC50 [15]: 299 nM
Activity [16]: Non-toxic
Activity [17]: 0.714%
half-life [18]: 2.69 h
Activity [19]: 0.211%
IC50 [20]: 499 nM
Activity [21]: 0.351%
Activity [22]: 7.69 ×10⁶ /uL
bioavailability [23]: 18.4%
Activity [24]: Non-toxic
IC50 [25]: 12 nM
IC50 [26]: 389 nM
IC50 [1]: 60 nM
AUC [27]: 32400 ng·h/mL
Activity [28]: Non-toxic
half-life [29]: 8.67 h
Activity [30]: 0.831%
IC50 [31]: 480 nM
k el [32]: 2.22e-05 s⁻¹
Activity [33]: 457.21 U/L
Activity [34]: 523.43 U/L
Activity [35]: 4.993%
IC50 [36]: 482 nM

CC(C)C[C@H](C(=O)NO)N1CC[C@@](N)(c2ccc(OCc3cc(C(C)C)nc4ccccc34)cc2)C1=O
IC50 [1]: 140 nM

COc1cc(COc2ccc([C@]3(N)CCN([C@H](CC(C)C)C(=O)NO)C3=O)cc2)c2ccccc2n1
IC50 [1]: 401 nM

CCc1cc(COc2ccc([C@]3(N)CCN([C@H](CC(C)C)C(=O)NO)C3=O)cc2)c2ccccc2n1
IC50 [1]: 111 nM
